This assay deals with T1, α-β tubulin (β tubulin, porcine brain) (Sus scrofa, UniProt P02550+P02554).
T1 construct: α-β tubulin purified from porcine brains, labeled with RED-NHS; with α tubulin
Briefly: microscale thermophoresis, labeled tubulin. The format is binding. In general terms: MST reads how a fluorescent partner responds to local heating, with and without ligand.

Molecules are shown by their SMILES.

In general, Kd refers to the equilibrium constant for the complex coming apart. Lower therefore signals tighter binding.

T1 sequence (P02554 whole entry): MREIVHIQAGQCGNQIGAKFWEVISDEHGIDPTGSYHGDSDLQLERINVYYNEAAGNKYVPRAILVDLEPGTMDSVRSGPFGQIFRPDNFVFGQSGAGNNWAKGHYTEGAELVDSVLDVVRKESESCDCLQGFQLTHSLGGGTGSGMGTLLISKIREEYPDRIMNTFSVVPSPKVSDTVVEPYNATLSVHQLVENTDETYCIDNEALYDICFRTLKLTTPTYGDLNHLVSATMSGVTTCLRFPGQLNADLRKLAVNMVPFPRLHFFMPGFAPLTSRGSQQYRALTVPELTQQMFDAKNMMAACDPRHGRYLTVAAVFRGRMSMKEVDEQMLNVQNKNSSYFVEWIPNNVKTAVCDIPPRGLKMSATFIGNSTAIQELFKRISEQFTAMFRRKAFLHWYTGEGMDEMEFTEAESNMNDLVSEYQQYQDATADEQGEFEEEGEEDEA
T1 sequence (P02550 whole entry): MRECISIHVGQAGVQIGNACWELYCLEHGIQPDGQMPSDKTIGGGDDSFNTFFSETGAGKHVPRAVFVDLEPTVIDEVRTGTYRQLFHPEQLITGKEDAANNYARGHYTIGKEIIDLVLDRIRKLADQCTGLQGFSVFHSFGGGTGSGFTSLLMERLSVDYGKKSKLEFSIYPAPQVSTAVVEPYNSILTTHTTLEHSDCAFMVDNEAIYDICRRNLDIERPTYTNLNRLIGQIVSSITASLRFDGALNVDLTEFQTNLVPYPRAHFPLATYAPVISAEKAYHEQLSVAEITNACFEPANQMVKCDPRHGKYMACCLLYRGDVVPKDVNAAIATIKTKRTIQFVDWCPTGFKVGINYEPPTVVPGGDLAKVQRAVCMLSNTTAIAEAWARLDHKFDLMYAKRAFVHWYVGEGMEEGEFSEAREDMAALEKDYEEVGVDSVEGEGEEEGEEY

The molecule `COc1cc2c(=O)c(-c3cc(OC)c4c(c3OC)OCO4)coc2cc1OCc1ccccc1` [gatastatin] displayed an equilibrium dissociation constant (Kd) of 2160 ± 470 nM.

The values are drawn from article PMC10046562, “Computational Analysis and Experimental Testing of the Molecular Mode of Action of Gatastatin and Its Derivatives” (Cancers, 2023).
